# Experimental data published in paper doi:10.1101/2022.11.21.517375v1, “Fragment-Based Hit Discovery via Unsupervised Learning of Fragment-Protein Complexes” (biorxiv, 2022).
# Where two headings read alike, the source gives them in different places.
# Columns and labels:
# [1] = target: T1, SARS-CoV-2 main protease (Mpro) (Severe acute respiratory syndrome coronavirus 2, UniProt P0DTD1); assay: fluorescence protease assay, fluorogenic peptide, dose response; format: biochemical
# T1 construct: gene rep
# [2] = target: T2, SARS-CoV-2 nsp3-Mac1 (HTRF assay) (Severe acute respiratory syndrome coronavirus 2, UniProt P0DTD1); assay: HTRF displacement of ADP-ribose-conjugated biotin peptide; format: binding
# T2 construct: gene rep
# [3] = target: T3, Mac1 (P43 crystals) (Severe acute respiratory syndrome coronavirus 2, UniProt P0DTD1); assay: X-ray crystallography, crystal soaking, PanDDA; format: binding; settings: active site; P43 crystals soaked at 10 or 20 mM for 2-[…]
# T3 construct: gene rep
smiles,measurement,setting,value
O=C(NNc1nc2ccccc2[nH]1)c1cc(=O)[nH]c2ccccc12 [WIL-UNI-d4749f31-37],IC50,"[1]; pH 7.3, 20 mM HEPES, 1.0 mM TCEP, 50 mM NaCl, 5 nM Mpro, 37 nM substrate, 15 min pre-incubation, room temperature, read-out: IC50",25.8 µM
CCC(CNc1ncnc2[nH]cnc12)NC(=O)CCC1CCCCC1 (racemic) [Z5551425673],inhibition at 250 µM,[2]; read-out: % inhibition at 250 μM,30.1%
CCNc1nc2c(cnn2C)c(=O)[nH]1 [Z1102995175],% inhibition at 250 μM,"[2]; pH 7.0, 25 mM HEPES, 20 mM NaCl, […] protein, 400 nM peptide, room temperature",24.8%
CC[C@@H](CNc1ncnc2[nH]cnc12)NC(=O)CCC1CCCCC1 [Z5551425673 (S-stereoisomer)],"X-ray crystallography, crystal soaking, PanDDA",[3],structure of Z5551425673 (as the S-stereoisomer) bound to the active site
COc1ccc2c(C(=O)NNc3nc4ccccc4[nH]3)cc(=O)[nH]c2c1 [ALP-UNI-ed5cdfd2-1],IC50,[1],19.4 µM
